In brackets after ≈: the same amount, converted by molar mass.
Tests used:
[1] = biological target: T1, Dihydroorotate dehydrogenase (Plasmodium falciparum, UniProt Q54A96)
T1 sequence (Q54A96 whole entry): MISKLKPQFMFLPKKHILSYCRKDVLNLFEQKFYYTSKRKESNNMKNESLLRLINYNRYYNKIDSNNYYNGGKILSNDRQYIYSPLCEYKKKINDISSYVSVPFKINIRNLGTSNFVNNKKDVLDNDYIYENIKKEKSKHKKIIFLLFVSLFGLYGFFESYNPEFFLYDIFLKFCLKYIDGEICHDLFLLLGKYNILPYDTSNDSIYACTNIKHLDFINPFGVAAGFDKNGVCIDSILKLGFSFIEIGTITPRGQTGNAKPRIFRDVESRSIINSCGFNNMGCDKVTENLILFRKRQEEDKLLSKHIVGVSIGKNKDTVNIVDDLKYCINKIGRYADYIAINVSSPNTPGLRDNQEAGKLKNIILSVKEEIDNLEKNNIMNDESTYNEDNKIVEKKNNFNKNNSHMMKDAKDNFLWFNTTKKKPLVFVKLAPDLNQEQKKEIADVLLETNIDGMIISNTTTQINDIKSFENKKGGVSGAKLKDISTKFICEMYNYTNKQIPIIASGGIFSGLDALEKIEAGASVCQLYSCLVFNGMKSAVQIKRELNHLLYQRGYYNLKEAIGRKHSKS
Description: Inhibition of Plasmodium falciparum C-terminal hexa-His tagged DHODH expressed in Escherichia coli by DCIP reduction assay

[2] = system: Liver microsomes; test: Intrinsic clearance in human liver microsomes; type: ADME, Microsome
[3] = system: Liver; test: Intrinsic clearance in mouse liver microsomes; type: ADME, Microsome
[4] = Inhibition of Plasmodium berghei C-terminal hexa-His tagged DHODH expressed in Escherichia coli by DCIP reduction assay
[5] = system: Plasmodium falciparum; test: Antimalarial activity against Plasmodium falciparum 3D7 by [3H]hypoxanthine incorporation assay in presence of human serum; type: functional, organism-based
[6] = Lipophilicity, log D of the compound at pH 7.4; type: physicochemical; conditions: buffer
[7] = Aqueous solubility of the compound at pH 6.5; type: physicochemical
[8] = system: Plasma; test: Plasma protein binding in human by chromatographic method; type: ADME, cell-free
[9] = biological target: Dihydroorotate dehydrogenase (quinone), mitochondrial (Homo sapiens, UniProt Q02127)
Dihydroorotate dehydrogenase (quinone), mitochondrial, sequence (Q02127 whole entry): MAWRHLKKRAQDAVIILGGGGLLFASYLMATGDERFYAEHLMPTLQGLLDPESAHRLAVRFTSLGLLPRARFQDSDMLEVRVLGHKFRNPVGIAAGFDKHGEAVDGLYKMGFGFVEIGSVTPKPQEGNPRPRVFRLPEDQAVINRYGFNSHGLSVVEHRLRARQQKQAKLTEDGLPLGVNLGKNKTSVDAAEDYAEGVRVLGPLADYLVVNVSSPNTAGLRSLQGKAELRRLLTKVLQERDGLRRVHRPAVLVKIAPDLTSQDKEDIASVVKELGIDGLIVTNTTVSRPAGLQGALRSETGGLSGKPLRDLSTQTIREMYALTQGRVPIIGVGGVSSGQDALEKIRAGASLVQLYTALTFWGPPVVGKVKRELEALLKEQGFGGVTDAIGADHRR
Description: Inhibition of human C-terminal hexa-His tagged DHODH expressed in Escherichia coli by DCIP reduction assay

| Structure (SMILES) | IC50 [1] | EC50 [5] | also measured |
| --- | --- | --- | --- |
| COCc1nc2nc(C)cc(Nc3cccc(Cl)c3)n2n1 | 1700 nM |  |  |
| Cc1cc(Nc2ccc(S(F)(F)(F)(F)F)cc2)n2nc(C(F)(F)F)nc2n1 | 30 nM | 140 nM | Intrinsic clearance [2]: < 5 µL/min/mg; Intrinsic clearance [3]: < 6 µL/min/mg; IC50 [4]: 2500 nM; logD [6]: 3.7; solubility [7]: 30 µM (≈ 12.6 µg/mL) |
| CNCCc1nc2nc(C)cc(Nc3ccc(Cl)cc3)n2n1 | > 10000 nM | > 2500 nM |  |
| CNCCOc1nc2nc(C)cc(Nc3ccc(S(F)(F)(F)(F)F)cc3)n2n1 | > 10000 nM |  |  |
| Cc1cc(Nc2ccc(Cl)cc2)n2[nH]c(=O)nc2n1 | > 10000 nM |  |  |
| COCCc1nc2nc(C)cc(Nc3ccc(C(F)(F)F)cc3)n2n1 | 2500 nM | 4200 nM | PPB [8]: 73.7%; Intrinsic clearance [2]: 9 µL/min/mg; Intrinsic clearance [3]: 14.3 µL/min/mg; logD [6]: 2.7; solubility [7]: 71 µM (≈ 24.9 µg/mL) |
| Cc1cc(Nc2ccc(Cl)cc2)n2nc(S(C)(=O)=O)nc2n1 | 45 nM | 1400 nM |  |
| Cc1cc(Nc2ccc(Cl)cc2)n2nc(CC3CC3)nc2n1 | 12000 nM |  |  |
| CCC(F)(F)c1nc2nc(C)cc(Nc3cccc(Cl)c3)n2n1 | 30 nM | 1200 nM | IC50 [4]: 1400 nM; IC50 [9]: > 100000 nM |
| CNCCOc1nc2nc(C)cc(Nc3cccc(Cl)c3)n2n1 | > 10000 nM |  |  |
| CNCCc1nc2nc(C)cc(Nc3cccc(Cl)c3)n2n1 | > 10000 nM | > 2500 nM |  |
| Cc1cc(Nc2ccc(C(F)(F)F)cc2)n2nc(CC(C)C)nc2n1 | 2000 nM |  |  |
| Cc1cc(Nc2ccc(S(F)(F)(F)(F)F)cc2)n2nc(C(C)C)nc2n1 | 100 nM | 420 nM | IC50 [4]: 3800 nM; IC50 [9]: > 100000 nM |
| CCC(F)(F)c1nc2nc(C)cc(Nc3ccc(Cl)cc3)n2n1 | 34 nM | 94 nM | IC50 [4]: 1800 nM; IC50 [9]: > 100000 nM |
| Cc1cc(Nc2cccc(Cl)c2)n2nc(C(C)C)nc2n1 | 120 nM | 1100 nM | IC50 [4]: 570 nM |
| COCc1nc2nc(C)cc(Nc3ccc(Cl)cc3)n2n1 | 2200 nM |  |  |
| CNCCOc1nc2nc(C)cc(Nc3ccc(C(F)(F)F)cc3)n2n1 | > 10000 nM |  |  |
| COCCc1nc2nc(C)cc(Nc3cccc(Cl)c3)n2n1 | > 10000 nM |  |  |
| Cc1cc(Nc2ccc(C(F)(F)F)cc2)n2nc(OCCN)nc2n1 | > 10000 nM |  |  |
| Cc1cc(Nc2ccc(S(F)(F)(F)(F)F)cc2)n2nc(OCCN(C)C)nc2n1 | > 10000 nM |  |  |
| Cc1cc(Nc2ccc(S(F)(F)(F)(F)F)cc2)n2nc(CC3CC3)nc2n1 | 5700 nM | > 10000 nM |  |

| Structure (SMILES) | IC50 [1] | EC50 [5] | also measured |
| --- | --- | --- | --- |
| Cc1cc(Nc2ccc(Cl)cc2)n2nc(CN)nc2n1 | > 10000 nM |  |  |
| CSc1nc2nc(C)cc(Nc3cccc(Cl)c3)n2n1 | 26 nM | 150 nM |  |
| CNCCOc1nc2nc(C)cc(Nc3ccc(Cl)cc3)n2n1 | > 10000 nM |  |  |
| Cc1cc(Nc2cccc(Cl)c2)n2nc(S(C)(=O)=O)nc2n1 | 160 nM | > 2500 nM |  |
| CSc1nc2nc(C)cc(Nc3ccc(Cl)cc3)n2n1 | 30 nM | 150 nM |  |
| Cc1cc(Nc2ccc(C(F)(F)F)cc2)n2nc(S(C)(=O)=O)nc2n1 | 90 nM | 170 nM |  |
| Cc1cc(Nc2ccc(C(F)(F)F)cc2)n2nc(C(F)(F)F)nc2n1 | 35 nM | 73 nM | Intrinsic clearance [2]: < 5 µL/min/mg; Intrinsic clearance [3]: < 6 µL/min/mg; IC50 [4]: 1300 nM; IC50 [9]: > 100000 nM |
| Cc1cc(Nc2cccc(Cl)c2)n2ncnc2n1 |  |  | logD [6]: 2.4 |
| COc1nc2nc(C)cc(Nc3cccc(Cl)c3)n2n1 |  | 980 nM | IC50 [4]: 1300 nM |
| Cc1cc(Nc2cccc(Cl)c2)n2nc(CO)nc2n1 | 6100 nM | > 10000 nM |  |
| Cc1cc(Nc2ccc(Cl)cc2)n2nc(CCN)nc2n1 | > 10000 nM |  |  |
| Cc1cc(Nc2cccc(Cl)c2)n2nc(C3CC3)nc2n1 | 820 nM |  | IC50 [4]: 1700 nM; IC50 [9]: > 100000 nM |
| Cc1cc(Nc2ccc(Cl)cc2)n2nc(OCCN)nc2n1 | > 10000 nM |  |  |
| Cc1cc(Nc2ccc(C(F)(F)F)cc2)n2nc(CC3CC3)nc2n1 | 1700 nM | 3400 nM |  |
| Cc1cc(Nc2ccc(Cl)cc2)n2nc(C3CC3)nc2n1 | 880 nM | 6800 nM | IC50 [4]: 2800 nM; IC50 [9]: > 100000 nM |
| Cc1cc(Nc2ccc(S(F)(F)(F)(F)F)cc2)n2nc(CC(C)C)nc2n1 | > 10000 nM |  |  |
| Cc1cc(Nc2cccc(Cl)c2)n2nc(CN)nc2n1 | > 10000 nM |  |  |
| Cc1cc(Nc2ccc(S(F)(F)(F)(F)F)cc2)n2nc(S(C)(=O)=O)nc2n1 | 110 nM | 2000 nM |  |
| Cc1cc(Nc2ccc(C(F)(F)F)cc2)n2nc(C(C)C)nc2n1 | 110 nM | 98 nM | IC50 [4]: 4500 nM; IC50 [9]: > 100000 nM |
| Cc1cc(Nc2cccc(Cl)c2)n2[nH]c(=O)nc2n1 | > 10000 nM |  |  |
| Cc1cc(Nc2ccc(S(F)(F)(F)(F)F)cc2)n2nc(C(C)(C)C)nc2n1 | 550 nM | 2300 nM | IC50 [4]: 16000 nM; IC50 [9]: > 100000 nM |

| Structure (SMILES) | IC50 [1] | EC50 [5] | also measured |
| --- | --- | --- | --- |
| Cc1cc(Nc2ccc(Cl)cc2)n2nc(CN(C)C)nc2n1 | > 10000 nM |  |  |
| CCC(C)c1nc2nc(C)cc(Nc3ccc(C(F)(F)F)cc3)n2n1 (stereo not drawn) | 380 nM | 270 nM | IC50 [4]: 4600 nM; IC50 [9]: > 100000 nM |
| COCCc1nc2nc(C)cc(Nc3ccc(Cl)cc3)n2n1 | > 10000 nM |  |  |
| Cc1cc(Nc2cccc(Cl)c2)n2nc(CC(C)C)nc2n1 | > 10000 nM |  |  |
| COCCOc1nc2nc(C)cc(Nc3ccc(Cl)cc3)n2n1 | > 10000 nM |  |  |
| Cc1cc(Nc2ccc(Cl)cc2)n2nc(CC(C)C)nc2n1 | > 10000 nM |  |  |
| CCC(C)c1nc2nc(C)cc(Nc3ccc(S(F)(F)(F)(F)F)cc3)n2n1 (stereo not drawn) | 330 nM | 510 nM | IC50 [4]: 4500 nM; IC50 [9]: > 100000 nM |
| CCOc1nc2nc(C)cc(Nc3ccc(Cl)cc3)n2n1 | 270 nM | 1300 nM | IC50 [4]: 1600 nM; IC50 [9]: > 100000 nM |
| COc1nc2nc(C)cc(Nc3ccc(Cl)cc3)n2n1 | 460 nM | 590 nM | IC50 [4]: 1200 nM |
| Cc1cc(Nc2cccc(Cl)c2)n2nc(OCCN)nc2n1 | > 10000 nM |  |  |
| Cc1cc(Nc2cccc(Cl)c2)n2nc(OCCN(C)C)nc2n1 | > 10000 nM |  |  |
| CNCc1nc2nc(C)cc(Nc3ccc(Cl)cc3)n2n1 | > 10000 nM |  |  |
| CCOc1nc2nc(C)cc(Nc3cccc(Cl)c3)n2n1 | 400 nM | 4400 nM | IC50 [4]: 1900 nM; IC50 [9]: > 100000 nM |
| Cc1cc(Nc2ccc(Cl)cc2)n2nc(OCCN(C)C)nc2n1 | > 10000 nM |  |  |
| Cc1cc(Nc2cccc(Cl)c2)n2nc(CN(C)C)nc2n1 | > 10000 nM |  |  |
| CNCc1nc2nc(C)cc(Nc3cccc(Cl)c3)n2n1 | > 10000 nM |  |  |
| Cc1cc(Nc2ccc(C(F)(F)F)cc2)n2nc(OCCN(C)C)nc2n1 | > 10000 nM |  |  |
| Cc1cc(Nc2ccc(C(F)(F)F)cc2)n2nc(C(C)(C)C)nc2n1 | 460 nM | 290 nM | IC50 [4]: 15000 nM; IC50 [9]: > 100000 nM |
| Cc1cc(Nc2ccc(Cl)cc2)n2nc(CO)nc2n1 | 5300 nM | > 2500 nM |  |
| Cc1cc(Nc2cccc(Cl)c2)n2nc(CC3CC3)nc2n1 | > 10000 nM |  |  |
| COCCOc1nc2nc(C)cc(Nc3cccc(Cl)c3)n2n1 | 4900 nM |  | IC50 [4]: > 10000 nM |
